Data on 28 compounds can be found in ChEMBL document CHEMBL5244202, “Structural evolution of toll-like receptor 7/8 agonists from imidazoquinolines to imidazoles” (RSC Med Chem, 2021).

What is called EC50 is the concentration needed to bring the measured effect to its halfway point.

Molecules are shown by their SMILES.

The target of test [1] is T1, Toll-like receptor 7 (Homo sapiens, UniProt Q9NYK1).
T1 sequence (Q9NYK1 whole entry): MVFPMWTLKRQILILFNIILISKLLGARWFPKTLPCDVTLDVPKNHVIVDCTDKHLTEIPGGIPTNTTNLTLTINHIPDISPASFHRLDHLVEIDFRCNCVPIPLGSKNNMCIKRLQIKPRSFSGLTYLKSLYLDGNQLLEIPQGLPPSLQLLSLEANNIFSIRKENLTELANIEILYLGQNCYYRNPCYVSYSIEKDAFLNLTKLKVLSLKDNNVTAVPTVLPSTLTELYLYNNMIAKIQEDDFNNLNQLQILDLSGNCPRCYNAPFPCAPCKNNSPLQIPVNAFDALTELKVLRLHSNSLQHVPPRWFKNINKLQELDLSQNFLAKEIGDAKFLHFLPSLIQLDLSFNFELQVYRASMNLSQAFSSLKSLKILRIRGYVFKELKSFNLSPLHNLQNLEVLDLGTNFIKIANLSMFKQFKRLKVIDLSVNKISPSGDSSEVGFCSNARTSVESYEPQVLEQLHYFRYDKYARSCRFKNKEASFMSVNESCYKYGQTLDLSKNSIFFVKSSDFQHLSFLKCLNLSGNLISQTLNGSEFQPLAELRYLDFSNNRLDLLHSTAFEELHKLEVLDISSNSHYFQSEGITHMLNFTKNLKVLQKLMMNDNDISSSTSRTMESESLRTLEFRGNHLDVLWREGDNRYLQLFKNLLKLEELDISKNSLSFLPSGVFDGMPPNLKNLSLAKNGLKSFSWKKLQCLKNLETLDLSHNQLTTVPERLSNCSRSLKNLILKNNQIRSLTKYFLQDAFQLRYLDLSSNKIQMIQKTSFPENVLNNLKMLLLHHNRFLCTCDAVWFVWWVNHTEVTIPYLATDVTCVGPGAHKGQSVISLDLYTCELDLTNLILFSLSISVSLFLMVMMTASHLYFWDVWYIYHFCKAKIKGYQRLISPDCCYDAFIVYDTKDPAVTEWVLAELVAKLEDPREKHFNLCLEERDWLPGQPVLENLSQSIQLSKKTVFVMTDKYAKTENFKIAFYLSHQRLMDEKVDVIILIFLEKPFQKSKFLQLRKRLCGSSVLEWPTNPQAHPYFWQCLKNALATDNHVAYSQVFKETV
The experiment in a line: Agonist activity at TLR7 (unknown origin).

Test [2] concerns the target T2, Toll-like receptor 8 (Homo sapiens, UniProt Q9NR97).
T2 sequence (Q9NR97 whole entry): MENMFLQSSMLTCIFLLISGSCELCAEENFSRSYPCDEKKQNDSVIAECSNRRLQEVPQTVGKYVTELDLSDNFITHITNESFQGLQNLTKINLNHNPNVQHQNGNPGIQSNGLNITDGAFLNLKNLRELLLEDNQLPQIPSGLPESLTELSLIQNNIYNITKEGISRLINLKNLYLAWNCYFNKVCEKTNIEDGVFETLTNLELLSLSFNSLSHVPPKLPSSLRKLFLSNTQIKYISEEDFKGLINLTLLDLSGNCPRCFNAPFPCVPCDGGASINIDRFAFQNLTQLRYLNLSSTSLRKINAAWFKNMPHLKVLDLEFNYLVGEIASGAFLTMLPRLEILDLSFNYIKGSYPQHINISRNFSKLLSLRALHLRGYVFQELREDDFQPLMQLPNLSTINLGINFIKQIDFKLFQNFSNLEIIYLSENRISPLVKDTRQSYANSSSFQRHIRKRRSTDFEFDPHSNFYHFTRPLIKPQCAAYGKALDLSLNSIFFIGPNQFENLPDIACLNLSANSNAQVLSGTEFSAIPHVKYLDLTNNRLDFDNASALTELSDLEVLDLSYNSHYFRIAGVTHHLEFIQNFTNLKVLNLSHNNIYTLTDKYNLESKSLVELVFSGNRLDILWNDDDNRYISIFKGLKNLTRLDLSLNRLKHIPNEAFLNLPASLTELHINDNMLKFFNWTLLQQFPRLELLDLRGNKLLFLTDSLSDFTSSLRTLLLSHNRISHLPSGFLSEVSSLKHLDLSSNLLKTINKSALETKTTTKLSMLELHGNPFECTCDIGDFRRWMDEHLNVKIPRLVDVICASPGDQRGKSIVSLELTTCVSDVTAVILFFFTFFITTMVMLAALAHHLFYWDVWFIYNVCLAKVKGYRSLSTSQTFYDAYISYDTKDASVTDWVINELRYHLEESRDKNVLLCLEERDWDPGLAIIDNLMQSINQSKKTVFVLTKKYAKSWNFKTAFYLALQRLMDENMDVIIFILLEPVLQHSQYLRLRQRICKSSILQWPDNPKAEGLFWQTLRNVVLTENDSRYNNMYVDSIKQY
The experiment in a line: Agonist activity at human TLR8 in HEK-Blue hTLR8 cells assessed as activation of NFkappaB by SEAP reporter gene based spectrophotometry assay. To be noted: hek-blue htlr8. The test is classed as cell-based. On the technique in general: In a reporter assay the amount or activity of a reporter protein is the signal.

For test [3], the target named is T2, Toll-like receptor 8. The experiment in a line: Agonist activity at human TLR8 transfected in HEK293 cells assessed as induction of SEAP production incubated overnight. The format is cell-based.
The target of test [4] is T1, Toll-like receptor 7. The experiment in a line: Agonist activity at recombinant human TLR7 transfected in HEK293 cells assessed as induction of SEAP production incubated overnight by SEAP reporter gene based assay. The test is classed as cell-based.
For test [5], the target named is T2, Toll-like receptor 8. The experiment in a line: Agonist activity at human TLR8 in HEK-Blue hTLR8 cells assessed as induction of SEAP production using nitrophenyl phosphate as substrate incubated for 20 hrs by microplate reader analysis. The test is classed as cell-based.
Test [6] concerns the target T1, Toll-like receptor 7. The experiment in a line: Agonist activity at human TLR7 in HEK-Blue hTLR7 cells assessed as activation of NFkappaB by SEAP reporter gene based spectrophotometry assay. The test is classed as cell-based.
The target of test [7] is T1, Toll-like receptor 7. The experiment in a line: Agonist activity at human TLR7 transfected in HEK293 cells assessed as induction of SEAP production incubated overnight by SEAP reporter gene based assay. The format is cell-based.
The target of test [8] is T2, Toll-like receptor 8. The experiment in a line: Agonist activity at human TLR8 (27 to 287 residues) in HEK-Blue hTLR8 cells assessed as induction of NFkappaB by SEAP reporter gene based spectrophotometry assay. The test is classed as cell-based.
In test [9] the target is T2, Toll-like receptor 8. The experiment in a line: Agonist activity at TLR8 (unknown origin).
The nature of test [10]: Induction of IFN production in C3H/HeJ mouse splenocytes incubated for 18 hrs. The test is classed as functional. Conditions: Splenocyte, read-out: MEC.

Turning to `CCCCNc1nc(N)nnc1OC(C)C`, the concentration for a half-maximal effect (EC50) at Toll-like receptor 7 [1] is 8270 nM.
Regarding `CCCc1nc2c(N)nc3ccc(-n4cc([Si](C)(C)C)nn4)cc3c2s1`, the EC50 on Toll-like receptor 8 [2] is 9840 nM.
Regarding `CCCCNc1nc(N)nnc1OCc1ccccn1`, the EC50 on Toll-like receptor 7 [1] stood at 170 nM.
For `CCC[C@@H](CO)Nc1nc(N)nc(C)c1Cc1ccc(CN2CCNCC2)cc1OC`, the EC50 at Toll-like receptor 8 [3] is 5250 nM; on Toll-like receptor 7 [4], 63.1 nM.
`CCC[C@@H](CO)Nc1nc(N)nc(C)c1Cc1ccc(CN2CCN(C)CC2)cc1OC`: the EC50 at Toll-like receptor 8 [5] is 100 nM; at Toll-like receptor 7 [4], under 6.31 nM.
In the case of `CCCCOc1nc(N)c2[nH]cc(Cc3ccc(CN4CCCC4)cc3)c2n1`, the EC50 at Toll-like receptor 7 [1] is 100 nM.
For the compound `CC(C)Cc1nc2c(N)nc3ccccc3c2s1`, the figures for the EC50 on Toll-like receptor 7 [6] (hek-blue htlr7) and on Toll-like receptor 8 [2] were 6960 nM and 1550 nM, respectively.
On to `CCOC(=O)COc1ccc(CN(CCCn2c(CCOC)nc3c(N)nc4ccccc4c32)C(=O)CN2CCCC2)cc1`, for which the EC50 at Toll-like receptor 7 [7] was 150 nM.
As to `CC(C)Oc1cc2ccccc2nc1N`, at Toll-like receptor 8 [8], the EC50 was 100000 nM.
`CCCCNc1nc(N)nnc1OC`: it took 17500 nM to reach a half-maximal effect at Toll-like receptor 7 [1] (EC50).
Take `CCC[C@@H](CO)Nc1nc(N)nc(C)c1Cc1ccc(CN2CCCC2)cc1OC`: the EC50 was 63.1 nM at Toll-like receptor 8 [5] and under 5.89 nM at Toll-like receptor 7 [4].
`Cc1nc2c(N)nc3ccccc3c2s1`: the EC50 at Toll-like receptor 7 [6] (hek-blue htlr7) was 10200 nM.
For `Nc1nc2ccccc2c2sc(CCC(F)(F)F)nc12`, the EC50 worked out at 3630 nM on Toll-like receptor 7 [6] (hek-blue htlr7) and 1610 nM on Toll-like receptor 8 [2].
Turning to `CCCCNc1nc(N)nnc1OCCCN(C)C`, the results for the EC50 on Toll-like receptor 7 [1] and on Toll-like receptor 8 [9] were over 25000 nM and 100 nM, respectively.
In turn, `CCCCNc1nc(N)nnc1OCc1ccccc1OC` returned an EC50 on Toll-like receptor 8 [9] of 640 nM.
In the case of `CCC[C@@H](CCO)Nc1nc(N)nc(C)c1Cc1ccc(CNCCC(N)=O)cc1OC`, the figures for the EC50 at Toll-like receptor 8 [3] and on Toll-like receptor 7 [4] were over 10000 nM and 81.3 nM, respectively.
Consider `CCCc1nc2c(NC(=O)CN=[N+]=[N-])nc3ccccc3c2s1`, for which the EC50 at Toll-like receptor 7 [6] (hek-blue htlr7) is 3530 nM; at Toll-like receptor 8 [2], 1200 nM.
On to `CCC[C@@H](CCO)Nc1nc(N)nc(C)c1Cc1ccc(CNC)cc1OC`, for which the EC50 on Toll-like receptor 8 [3] was 6460 nM; on Toll-like receptor 7 [4], 3.02 nM.
Take `CCCCc1nc2c(N)nc(NCc3ccc(OC)cc3)cc2n1Cc1ccccc1`: the EC50 on Toll-like receptor 7 [6] was found to be 75 nM.
Consider `CCCCNc1nc(N)c2nc(O)n(Cc3ccccc3)c2n1`, for which the minimal effective concentration in test [10] amounted to 0.1 µM.
With `CCCCNc1nc(N)nnc1OCCOC`, the results for the EC50 on Toll-like receptor 7 [1] and at Toll-like receptor 8 [9] were 4750 nM and 1000 nM, respectively.
At Toll-like receptor 7 [1], `CCCCNc1nc(N)nnc1OCc1ccccc1F` returned an EC50 of 750 nM.
Take `CCCCc1nc2c(N)nc(NCc3cccnc3)cc2n1Cc1ccccc1`: at Toll-like receptor 7 [6], the EC50 was 250 nM.
For `CC[C@H](C)c1nc2c(N)nc3ccccc3c2s1`, the EC50 on Toll-like receptor 8 [2] was found to be 2770 nM.
`CCCCOc1nc(N)c2[nH]c(C#N)c(Cc3ccc(CN4CCCC4)nc3)c2n1` gave an EC50 on Toll-like receptor 7 [1] of 1 nM.
`CCC[C@@H](CCO)Nc1nc(N)nc(C)c1Cc1ccc(CNC2CN(C)C2)cc1OC`: the EC50 was over 10000 nM on Toll-like receptor 8 [3] and 19.1 nM on Toll-like receptor 7 [4].
Consider `CCCCSc1nc(N)c2nc(O)n(Cc3ccccc3)c2n1`, for which the minimal effective concentration in test [10] turned out to be 0.01 µM.
For the compound `COc1cc2ccccc2nc1N`, at Toll-like receptor 8 [8], the EC50 amounted to 100000 nM.
